Tests used:
MYB mRNA = assay: Gene panel canonical junction qPCR assay, MYB CJ mRNA decrease; assay type: cell-based, human; settings: Homo sapiens, canonical junction qPCR, read-out: MYB IC50 (decrease in CJ mRNA levels)
Summary of the method: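 IC50 values describe loss of canonical-junction transcript, fitted by 4-parameter logistic to percent response derived from fixed ΔCt windows. Read-out: RT-qPCR on lysates of compound-treated K562 or A673 cells, probes overlapping the exon junction, ΔΔCt versus housekeeping gene and DMSO control.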

Target C = assay: HiBiT protein abundance assay, Target C (K562 HiBiT knock-in cells); assay type: cell-based, human; settings: 24 hours
Summary of the method: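 Protein abundance read by HiBiT lytic luminescence after 24 h compound exposure (37 °C) of knock-in K562 cells, 10000 cells/well in IMDM+1% FBS. Dosing: 10 points, 3-fold, top 10 μM final, ≤0.25% DMSO. Four-parameter logistic fit gave concentration reducing abundance to 50% of untreated control.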

Row | SMILES | IC50 (MYB mRNA) [µM] | IC50 (Target C) [µM]
1 | Cc1cn2cc(NC(=O)c3ccc(N4CCN[C@@H](C(C)C)C4)c4nccnc34)cc(F)c2n1 [Compound 250, N-{8-fluoro-2-methylimidazo[1,2-a]pyridin-6-yl}-8-[(3S)-3-isopropylpiperazin-1-yl]quinoxaline-5-carboxamide] | 0.1 to 1 | > 10
2 | CN[C@H]1CCN(c2ccc(C(=O)Nc3cc(F)c4nc(C)cn4c3)c3nnccc23)C1 [Compound 239, (S)—N-(8-fluoro-2-methylimidazo[1,2-a]pyridin-6-yl)-5-(3-(methylamino)pyrrolidin-1-yl)cinnoline-8-carboxamide] | < 0.1 | 1 to 10
3 | Cn1cc2ccc(NC(=O)c3ccc(N4CCNCC4)c4ccnnc34)cc2n1 [Compound 115] | > 10 | > 10
4 | Cc1cn2cc(NC(=O)c3ccc(N4CCC(N)(CF)CC4)c4nccnc34)cc(F)c2n1 [Compound 356] | 1 to 10 | 1 to 10
5 | COc1nc2c(N3C[C@@H](C)N[C@@H](C)C3)ccc(C(=O)Nc3cc(F)c4nc(C)cn4c3)c2nc1C [Compound 260, 8-((3R,5S)-3,5-dimethylpiperazin-1-yl)-N-(8-fluoro-2-methylimidazo[1,2-a]pyridin-6-yl)-2-methoxy-3-methylquinoxaline-5-carboxamide; 2,2,2-trifluoroacetate] | 0.1 to 1 | 1 to 10
6 | Cc1cn2cc(NC(=O)c3ccc(N4C[C@@H](C)N[C@@H](C)C4)c4cccnc34)cc(F)c2n1 [Compound 340] | 0.1 to 1 | > 10
7 | Cc1cn2cc(NC(=O)c3ccc(N4CCN[C@@H](C5CC5)C4)c4nccnc34)cc(F)c2n1 [Compound 252, 8-[(3S)-3-cyclopropylpiperazin-1-yl]-N-{8-fluoro-2-methylimidazo[1,2-a]pyridin-6-yl}quinoxaline-5-carboxamide] | 0.1 to 1 | 1 to 10
8 | Cc1cn2cc(NC(=O)c3ccc(N4C[C@@H](C)N[C@@H](C)C4)c4nccnc34)nc(Cl)c2n1 [Compound 279] | < 0.1 | > 10
9 | Cc1cn2cc(NC(=O)c3ccc(N4C[C@@H](C)N[C@@H](C)C4)c4nccnc34)nc2c(C)n1 [Compound 359] | 0.1 to 1 | > 10
10 | COc1ccc2c(N3C[C@@H](C)N[C@@H](C)C3)ccc(C(=O)Nc3cc(F)c4nc(C)cn4c3)c2n1 [Compound 268, 5-[(3R,5S)-3,5-dimethylpiperazin-1-yl]-N-{8-fluoro-2-methylimidazo[1,2-a]pyridin-6-yl}-2-methoxyquinoline-8-carboxamide] | 0.1 to 1 | 1 to 10
11 | Cc1ccc2cc(NC(=O)c3ccc(N4C[C@@H](C)N[C@@H](C)C4)c4nccnc34)cc(F)c2n1 [Compound 353] | > 10 | > 10
12 | Cn1cc2c(F)cc(NC(=O)c3ccc(N4CCNCC4)c4ccnnc34)cc2n1 [Compound 116] | > 10 | > 10
13 | Cc1cn2cc(NC(=O)c3ccc(N4CCN(C)C5(CC5)C4)c4nccnc34)cc(F)c2n1 [Compound 364] | 0.1 to 1 | 1 to 10
14 | Cc1cn2cc(NC(=O)c3ccc(N4CCN[C@H](C5CC5)C4)c4nccnc34)cc(F)c2n1 [Compound 253, 8-[(3R)-3-cyclopropylpiperazin-1-yl]-N-{8-fluoro-2-methylimidazo[1,2-a]pyridin-6-yl}quinoxaline-5-carboxamide] | < 0.1 | 1 to 10
15 | Cc1cn2cc(NC(=O)c3ccc(N4CCN[C@H](CF)C4)c4nccnc34)cc(F)c2n1 [Compound 366] | 0.1 to 1 | 1 to 10
16 | Cc1cn2cc(NC(=O)c3ccc(N4C[C@H](C)N[C@@H](C)C4)c4nccnc34)cc(F)c2n1 [Compound 313] | < 0.1 | 1 to 10
17 | Cc1cn2cc(NC(=O)c3ccc(N4CCC(NC5CC5)CC4)c4ccnnc34)cc(F)c2n1 [Compound 259, 5-[4-(cyclopropylamino)piperidin-1-yl]-N-{8-fluoro-2-methylimidazo[1,2-a]pyridin-6-yl} cinnoline-8-carboxamide] | < 0.1 | 1 to 10
18 | COc1nc(NC(=O)c2ccc(N3C[C@@H](C)N[C@@H](C)C3)c3nccnc23)cc2oc(C)nc12 [Compound 298] | 0.1 to 1 | 1 to 10
19 | C[C@@H]1CN(c2ccc(C(=O)Nc3cc(F)c4cnccc4c3)c3nccnc23)C[C@H](C)N1 [Compound 343] | 1 to 10 | 1 to 10

Row | SMILES | IC50 (MYB mRNA) [µM] | IC50 (Target C) [µM]
20 | Cc1cn2cc(NC(=O)c3c(F)cc(N4C[C@@H](C)N[C@@H](C)C4)c4nccnc34)cc(F)c2n1 [Compound 261, cis-8-[(3R,5S)-3,5-dimethylpiperazin-1-yl]-6-fluoro-N-{8-fluoro-2-methylimidazo[1,2-a]pyridin-6-yl}quinoxaline-5-carboxamide] | < 0.1 | 1 to 10
21 | Cc1cn2cc(NC(=O)c3ccc([C@H]4CCNC4)c4nccnc34)cc(F)c2n1 [Compound 246] | 0.1 to 1 | 1 to 10
22 | Cc1cn2cc(NC(=O)c3ccc(N4CCNC(C)(CO)C4)c4nccnc34)cc(F)c2n1 (stereo not shown) [Compound 368] | < 0.1 | 1 to 10
23 | Cc1cn2cc(NC(=O)c3ccc(NC4CCNC4)c4nccnc34)cc(F)c2n1 (stereo not shown) [Compound 316] | 0.1 to 1 | > 10
24 | COc1ncc2c(N3C[C@@H](C)N[C@@H](C)C3)ccc(C(=O)Nc3cc(F)c4nc(C)cn4c3)c2n1 [Compound 300] | < 0.1 | 0.1 to 1
25 | Cc1cn2cc(NC(=O)c3ccc(N4CCN[C@H](CO)C4)c4nccnc34)cc(F)c2n1 [Compound 362] | 0.1 to 1 | 1 to 10
26 | CNC1CCN(c2ccc(C(=O)Nc3cc(F)c4nc(C)cn4c3)c3nc(OCCOC)ccc23)C1 (stereo not shown) [Compound 234] | 0.1 to 1 | 1 to 10
27 | Cc1c(O)c(NC(=O)c2ccc(N3C[C@@H](C)N[C@@H](C)C3)c3nccnc23)cc2cn(C)nc12 [Compound 310] | 0.1 to 1 | > 10
28 | Cc1cn2cc(NC(=O)c3ccc(N4CCN5CCOC[C@H]5C4)c4nccnc34)cc(F)c2n1 [Compound 256, (R)—N-(8-fluoro-2-methylimidazo[1,2-a]pyridin-6-yl)-8-(hexahydropyrazino[2,1-c][1,4]oxazin-8(1H)-yl)quinoxaline-5-carboxamide] | 1 to 10 | 1 to 10
29 | Cc1cn2cc(NC(=O)c3ccc(C4=CCNCC4)c4nccnc34)cc(F)c2n1 [Compound 240, N-{8-fluoro-2-methylimidazo[1,2-a]pyridin-6-yl}-8-(1,2,3,6-tetrahydropyridin-4-yl)quinoxaline-5-carboxamide] | < 0.1 | 0.1 to 1
30 | Cc1cn2cc(NC(=O)c3ccc(N4C[C@@H](C)N[C@@H](C)C4)c4ncc(O)nc34)cc(F)c2n1 [Compound 275] | > 10 | > 10
31 | Cc1cn2cc(NC(=O)c3ccc(N4CCN[C@@H](CF)C4)c4nccnc34)cc(F)c2n1 [Compound 367] | 1 to 10 | 1 to 10
32 | Cc1cn2cc(NC(=O)c3ccc(N4C[C@@H](C5CC5)N[C@@H](C)C4)c4nccnc34)cc(F)c2n1 [Compound 267, 8-((3R,5S)-3-cyclopropyl-5-methylpiperazin-1-yl)-N-(8-fluoro-2-methylimidazo[1,2-a]pyridin-6-yl)quinoxaline-5-carboxamide] | 0.1 to 1 | > 10
33 | Cc1cn2cc(NC(=O)c3ccc(N4C[C@@H](C)N[C@@H](C)C4)c4nccnc34)nc(C)c2n1 [Compound 288] | < 0.1 | 1 to 10
34 | Cc1cn2cc(NC(=O)c3ccc(N4CCNC5(CC5)C4)c4cccnc34)cc(F)c2n1 [Compound 341] | 0.1 to 1 | > 10
35 | Cc1cn2cc(NC(=O)c3ccc(N4C[C@@H](C)N[C@@H](C)C4)c4cncnc34)cc(F)c2n1 [Compound 302] | 0.1 to 1 | 1 to 10
36 | Cc1cn2cc(NC(=O)c3ccc(N4C[C@@H](C)N[C@@H](C)C4)c4nccnc34)cc(C#N)c2n1 [Compound 294] | 0.1 to 1 | > 10
37 | Cc1cn2cc(NC(=O)c3ccc(N4C[C@@H](C)N(O)[C@@H](C)C4)c4nccnc34)cc(F)c2n1 [Compound 355] | 0.1 to 1 | 1 to 10
38 | Cc1cn2nc(NC(=O)c3ccc(C4CCNCC4)c4ccnnc34)cc(C)c2n1 [Compound 113] | 1 to 10 | 1 to 10

— patent publication US20240409536A1, “COMPOUNDS AND METHODS FOR MODULATING SPLICING” (REMIX THERAPEUTICS INC., priority 2021, published 2024)
